Earlier results in patent US20070092573A1, “STABILIZED EXTENDED RELEASE PHARMACEUTICAL COMPOSITIONS COMPRISING A BETA-ADRENORECEPTOR ANTAGONIST” (priority 2005, published 2007).

water solubility: highly water-soluble
Structure (SMILES): COCCc1ccc(OCC(O)CNC(C)C)cc1 (stereo not shown) [Metoprolol Succinate]
